According to PubChem BioAssay (NCI):
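Dose response: 5 concentrations. Exposure: 48 h. Format: 96-well plates. Endpoint: linear interpolation; highest concentration if not reached. GI50: concentration for 50% inhibition of growth. TGI: total growth inhibition.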

Experiments:
Assay in all cases: inhibition of tumour cell growth, NCI panel, 48 h
[1] = system: CAKI-1 renal
[2] = system: EKVX NSCLC
[3] = system: HT29 colon
[4] = system: M14 melanoma
[5] = system: NCI-H522 lung
[6] = system: NCI/ADR-RES ovarian
[7] = system: SF-295 CNS
[8] = system: SF-539 CNS
[9] = system: SNB-19 CNS
[10] = system: T-47D breast

| SMILES | TGI [1] | TGI [2] | TGI [3] | TGI [4] | TGI [5] | TGI [6] | TGI [7] | TGI [8] | TGI [9] | TGI [10] | GI50 [1] | GI50 [2] | GI50 [3] | GI50 [4] | GI50 [5] | GI50 [6] | GI50 [7] | GI50 [8] | GI50 [9] | GI50 [10] |
| --- | --- | --- | --- | --- | --- | --- | --- | --- | --- | --- | --- | --- | --- | --- | --- | --- | --- | --- | --- | --- |
| C=C(C)c1nc(Oc2ccccc2)nc(Oc2ccccc2)n1 | 4440 nM | 32800 nM | 12900 nM | 11300 nM | 2730 nM | 29700 nM | 29800 nM | 14500 nM | 18500 nM | 21600 nM | – | – | – | – | – | – | – | – | – | – |
| COc1ccc(-c2c(Nc3ccccn3)nc3c(C4=CCCCC4)c(-c4ccccc4)[nH]n3c2=O)cc1 | 15100 nM | 36900 nM | > 100000 nM | > 100000 nM | 23900 nM | > 100000 nM | 14000 nM | 18600 nM | 17200 nM | 17300 nM | 2480 nM | 2970 nM | 2620 nM | 1230 nM | 3550 nM | 2570 nM | 2480 nM | 2810 nM | 3120 nM | 2220 nM |
| COc1cc2c3c(n(CCCN)c(=O)c2cc1OC)-c1ccc(N)cc1C3=O | > 82300 nM | > 30900 nM | 18200 nM | 13700 nM | 16700 nM | > 100000 nM | 37300 nM | 1610 nM | 16300 nM | 7370 nM | 30900 nM | 9150 nM | 2410 nM | 2210 nM | 780 nM | > 100000 nM | 3750 nM | 302 nM | 1270 nM | 842 nM |
| COc1ccc(-n2c(=O)c3ccccc3n(Cc3ccc(C(=O)NO)cc3)c2=O)cc1 | 23900 nM | 4310 nM | 22600 nM | 3440 nM | 4070 nM | > 100000 nM | 3540 nM | 5250 nM | 18500 nM | 6630 nM | 6390 nM | 1920 nM | 2970 nM | 1710 nM | 1450 nM | 18200 nM | 1810 nM | 1930 nM | 2960 nM | 1900 nM |
| c1cc(OCCCCCOc2cccc(-c3nc4ccccc4[nH]3)c2)cc(-c2nc3ccccc3[nH]2)c1 | 8650 nM | 6970 nM | > 100000 nM | > 100000 nM | > 100000 nM | 7910 nM | 6570 nM | > 100000 nM | > 100000 nM | 3180 nM | 1790 nM | 2210 nM | 2870 nM | 2570 nM | 2480 nM | 1990 nM | 1650 nM | 5080 nM | 2850 nM | 458 nM |
| O=C(O)CSc1cc(NS(=O)(=O)c2ccc(Br)cc2)c2ccccc2c1O | 29400 nM | 32800 nM | 78100 nM | 29500 nM | 33700 nM | 13800 nM | 30100 nM | 32800 nM | 34200 nM | 23100 nM | 14600 nM | 13800 nM | 18100 nM | 15100 nM | 16200 nM | 3110 nM | 16000 nM | 17800 nM | 17100 nM | 4840 nM |
| COc1ccccc1CNCCCN1C(=O)c2ccc3c4c(ccc(c24)C1=O)C(=O)N(CCCNCc1ccccc1OC)C3=O | 725 nM | 343 nM | 425 nM | 337 nM | 307 nM | 4540 nM | 666 nM | 612 nM | 347 nM | 420 nM | 233 nM | 168 nM | 136 nM | 179 nM | 145 nM | 1190 nM | 213 nM | 221 nM | 159 nM | 188 nM |
| C/C(=C\c1csc(C)n1)[C@@H]1C[C@@H]2O[C@]2(C)CCC[C@H](C)[C@H](O)[C@@H](C)C(=O)C(C)(C)[C@@H](O)CC(=O)N1 | 43.4 nM | 0.626 nM | 0.537 nM | 11 nM | 0.19 nM | 0.412 nM | 0.423 nM | 0.369 nM | 0.508 nM | 0.469 nM | 13.7 nM | 0.337 nM | 0.0823 nM | 1.54 nM | 0.0757 nM | 0.206 nM | 0.156 nM | 0.165 nM | 0.347 nM | 0.189 nM |
| CNCc1cccc2c1OCCOCCOCCNS(=O)(=O)c1ccc(cc1)-c1cnc(N)c(n1)C(=O)N2 | 1860 nM | 11200 nM | 3760 nM | 2710 nM | 3150 nM | > 100000 nM | 3390 nM | 2380 nM | 9900 nM | 5460 nM | 460 nM | 2830 nM | 1310 nM | 1310 nM | 1310 nM | 84300 nM | 1760 nM | 1110 nM | 2450 nM | 2050 nM |
